In brackets after ≈: the same amount, converted by molar mass.
Assays:
Assay type in all cases: cell-based
Penicillium expansum = assay: Antimicrobial activity (MIC); conditions: Penicillium expansum, DSM62841; Strain ID DSM 62841; potato dextrose broth pH 3.8; read-out: Minimal Inhibitory Concentration (MIC)
[1] = tested on: Lactobacillus plantarum ssp. plantarum; assay: Antimicrobial activity (MIC); conditions: Lactiplantibacillus plantarum, DSM20174; Strain ID DSM 20174; potato dextrose broth pH 3.8; read-out: Minimal Inhibitory Concentration (MIC)
Candida albicans = assay: Antimicrobial activity (MIC); conditions: Candida albicans; Strain ID ATCC10231; potato dextrose broth pH 3.8; read-out: Minimal Inhibitory Concentration (MIC)
Enterococcus faecalis = assay: Antimicrobial activity (MIC); conditions: Enterococcus faecalis, ATCC7080; Strain ID ATCC 7080; potato dextrose broth pH 3.8; read-out: Minimal Inhibitory Concentration (MIC)
Porphyromonas gingivalis = assay: Antimicrobial activity (MIC); conditions: Porphyromonas gingivalis, DSM20709; Strain ID DSM 20709; potato dextrose broth pH 3.8; read-out: Minimal Inhibitory Concentration (MIC)
[2] = tested on: Salmonella enterica ssp. enterica Ser. typhimurium; assay: Antimicrobial activity (MIC); conditions: Salmonella enterica, DSM 17058 / TYPHIMURIUM; Strain ID DSM 17058; potato dextrose broth pH 3.8; read-out: Minimal Inhibitory Concentration (MIC)
Yarrowia lipolytica = assay: Antimicrobial activity (MIC); conditions: Yarrowia lipolytica, DSM70561; Strain ID DSM 70561; potato dextrose broth pH 3.8; read-out: Minimal Inhibitory Concentration (MIC)
Streptococcus mutans = assay: Antimicrobial activity (MIC); conditions: Streptococcus mutans, DSM20523; Strain ID DSM 20523; potato dextrose broth pH 3.8; read-out: Minimal Inhibitory Concentration (MIC)
[3] = tested on: Alicyclobacillus acidoterrestris; assay: Antimicrobial activity (MIC); conditions: Alicyclobacillus acidoterrestris, DSM2498; Strain ID DSM 2498; potato dextrose broth pH 3.8; read-out: Minimal Inhibitory Concentration (MIC)
Clostridium perfringens = assay: microbe, parasite or virus in culture; conditions: Clostridium perfringens, DSM756, pH 3.8, read-out: Minimal Inhibitory Concentration (MIC)
Cutibacterium acnes = assay: Antimicrobial activity (MIC); conditions: Cutibacterium acnes, DSM1897; Strain ID DSM 1897; potato dextrose broth pH 3.8; read-out: Minimal Inhibitory Concentration (MIC)
[4] = tested on: Leuconostoc mesenteroides ssp. mesenteroides; assay: Antimicrobial activity (MIC); conditions: Leuconostoc mesenteroides, DSM20343; Strain ID DSM 20343; potato dextrose broth pH 3.8; read-out: Minimal Inhibitory Concentration (MIC)
Bacillus cereus = assay: Antimicrobial activity (MIC); conditions: Bacillus cereus; Strain ID DSM4490; potato dextrose broth pH 3.8; read-out: Minimal Inhibitory Concentration (MIC)
Bacillus licheniformis = assay: Antimicrobial activity (MIC); conditions: Bacillus licheniformis, DSM13; Strain ID DSM 13; potato dextrose broth pH 3.8; read-out: Minimal Inhibitory Concentration (MIC)
Candida parapsilosis = assay: Antimicrobial activity (MIC); conditions: Lodderomyces parapsilosis, ATCC20384; Strain ID ATCC 20384; potato dextrose broth pH 3.8; read-out: Minimal Inhibitory Concentration (MIC)
[5] = tested on: Gluconacetobacter liquefaciens; assay: Antimicrobial activity (MIC); conditions: Gluconacetobacter liquefaciens, DSM5603; Strain ID DSM 5603; potato dextrose broth pH 3.8; read-out: Minimal Inhibitory Concentration (MIC)
Listeria monocytogenes = assay: Antimicrobial activity (MIC); conditions: Listeria monocytogenes, DSM20600; Strain ID DSM 20600; potato dextrose broth pH 3.8; read-out: Minimal Inhibitory Concentration (MIC)
Byssochlamys fulva = assay: Antimicrobial activity (MIC); conditions: Paecilomyces fulvus, DSM1808; Strain ID DSM 1808; potato dextrose broth pH 3.8; read-out: Minimal Inhibitory Concentration (MIC)
Campylobacter jejuni = assay: Antimicrobial activity (MIC); conditions: Campylobacter jejuni, DSM4688; Strain ID DSM 4688; potato dextrose broth pH 3.8; read-out: Minimal Inhibitory Concentration (MIC)
Staphylococcus aureus = assay: Antimicrobial activity (MIC); conditions: Staphylococcus aureus, DSM2569; Strain ID DSM 2569; potato dextrose broth pH 3.8; read-out: Minimal Inhibitory Concentration (MIC)
Zygosaccharomyces rouxii = assay: Antimicrobial activity (MIC); conditions: Zygosaccharomyces rouxii, DSM7525; Strain ID DSM 7525; potato dextrose broth pH 3.8; read-out: Minimal Inhibitory Concentration (MIC)
Malassezia furfur = assay: Antimicrobial activity (MIC); conditions: Malassezia furfur, DSM6170; Strain ID DSM 6170; potato dextrose broth pH 3.8; read-out: Minimal Inhibitory Concentration (MIC)
Saccharomyces cerevisiae = assay: Antimicrobial activity (MIC); conditions: Saccharomyces cerevisiae, DSM2548; Strain ID DSM 2548; potato dextrose broth pH 3.8; read-out: Minimal Inhibitory Concentration (MIC)
[6] = tested on: Lactobacillus paracasei ssp. paracasei; assay: Antimicrobial activity (MIC); conditions: Lacticaseibacillus paracasei, DSM46331; Strain ID DSM 46331; potato dextrose broth pH 3.8; read-out: Minimal Inhibitory Concentration (MIC)
[7] = tested on: Phanerochaete chrysosporium; assay: Antimicrobial activity (MIC); conditions: Phanerodontia chrysosporium, DSM1556; Strain ID DSM 1556; potato dextrose broth pH 3.8; read-out: Minimal Inhibitory Concentration (MIC)
[8] = tested on: Pasteurella multocida ssp. multocida; assay: Antimicrobial activity (MIC); conditions: Pasteurella multocida, DSM16031; Strain ID DSM 16031; potato dextrose broth pH 3.8; read-out: Minimal Inhibitory Concentration (MIC)
Pseudomonas fluorescens = assay: Antimicrobial activity (MIC); conditions: Pseudomonas fluorescens; Strain ID DSM50337; potato dextrose broth pH 3.8; read-out: Minimal Inhibitory Concentration (MIC)

Question: How did the MIC (Penicillium expansum) turn out when `C[C@@H]1O[C@@H](O[C@H]2[C@H](O[C@H]3CC[C@@]4(C)[C@@H](CC[C@]5(C)[C@@H]4CC=C4[C@@H]6CC(C)(C)CC[C@]6(C(=O)O)CC[C@]45C)[C@]3(C)CO)OC[C@H](O)[C@@H]2O)[C@H](O)[C@H](O[C@@H]2OC[C@@H](O)[C@H](O)[C@H]2O)[C@H]1O` [A, Sapindoside B [30994-75-3]] was run?
Answer: The MIC was over 500 µg/mL.

Question: And the MIC [1]?
Answer: The MIC was 40 µg/mL (≈ 45.3 µM).

Question: What about the MIC (Candida albicans) of the same molecule?
Answer: Its MIC is over 80 µg/mL.

Question: What about the MIC (Enterococcus faecalis) of the same molecule?
Answer: The MIC was over 80 µg/mL.

Question: What about the MIC (Porphyromonas gingivalis) of the same molecule?
Answer: Its MIC is over 80 µg/mL.

Question: What about the MIC [2] of the same molecule?
Answer: The MIC was over 80 µg/mL.

Question: What about the MIC (Yarrowia lipolytica) of the same molecule?
Answer: Its MIC is over 80 µg/mL.

Question: What about the MIC (Streptococcus mutans) of the same molecule?
Answer: The MIC was over 80 µg/mL.

Question: And the MIC [3]?
Answer: Its MIC is 40 µg/mL (≈ 45.3 µM).

Question: What about the MIC (Clostridium perfringens) of the same molecule?
Answer: Its MIC is over 80 µg/mL.

Question: What about the MIC (Cutibacterium acnes) of the same molecule?
Answer: Its MIC is over 80 µg/mL.

Question: What about the MIC [4] of the same molecule?
Answer: The MIC was over 80 µg/mL.

Question: And the MIC (Bacillus cereus)?
Answer: The MIC was over 80 µg/mL.

Question: And the MIC (Bacillus licheniformis)?
Answer: The MIC was over 80 µg/mL.

Question: What about the MIC (Candida parapsilosis) of the same molecule?
Answer: The MIC was over 80 µg/mL.

Question: And the MIC [5]?
Answer: The MIC was 140 µg/mL (≈ 159 µM).

Question: And the MIC (Listeria monocytogenes)?
Answer: Its MIC is over 80 µg/mL.

Question: And the MIC (Byssochlamys fulva)?
Answer: The MIC was over 80 µg/mL.

Question: And the MIC (Campylobacter jejuni)?
Answer: Its MIC is over 80 µg/mL.

Question: What about the MIC (Staphylococcus aureus) of the same molecule?
Answer: Its MIC is over 80 µg/mL.

Question: And the MIC (Zygosaccharomyces rouxii)?
Answer: The MIC was 500 µg/mL (≈ 566 µM).

Question: What about the MIC (Malassezia furfur) of the same molecule?
Answer: Its MIC is over 80 µg/mL.

Question: And the MIC (Saccharomyces cerevisiae)?
Answer: The MIC was over 80 µg/mL.

Question: And the MIC [6]?
Answer: Its MIC is over 80 µg/mL.

Question: And the MIC [7]?
Answer: The MIC was over 80 µg/mL.

Question: And the MIC [8]?
Answer: Its MIC is over 80 µg/mL.

Question: What about the MIC (Pseudomonas fluorescens) of the same molecule?
Answer: The MIC was over 80 µg/mL.
